The numbers were not newly measured in patent US20230285278A1, “METHODS FOR TREATING CHRONIC RHINOSINUSITIS” (OptiNose, Inc., priority 2022, published 2023), which cites them from elsewhere.

Read-outs that look alike come from different tables or passages of the source.

On to `CCC(=O)O[C@]1(C(=O)SCF)[C@H](C)C[C@H]2[C@@H]3C[C@H](F)C4=CC(=O)C=C[C@]4(C)[C@@]3(F)[C@@H](O)C[C@@]21C` [Fluticasone propionate, S-(fluoromethyl) 6α,9-difluoro-11β,17-dihydroxy-16α-methyl-3oxoandrosta-1,4-diene-17β-carbothioate, 17-propionate], for which the Solubility result by setting is: (in 96% ethanol) “slightly soluble”; (in acetone) “sparingly soluble”; (in dichloromethane) “sparingly soluble”; (in dimethylformamide) “freely soluble”; (in water) “practically insoluble”.
